Here are results for 1 molecule from publication PMC4280904 (Journal of Veterinary Pharmacology and Therapeutics, 2014).

Data set [1] in a line: Dose linearity of imepitoin after oral dosing. The format is in vivo, beagle dogs. Particulars: for Cmax / Tmax: both, beagle, dog, plasma, po; for Tlag obs: enteric-coated capsules, mean ± SEM, n=6.
The test system of data set [2] is plasma protein. As to the kind of experiment: In vitro plasma protein binding. It counts as in vitro ADME, beagle dogs. Particulars: beagle, dog, heparinized plasma, mean ± SEM, n=3.
Data set [3] has as its system plasma protein. Description: In vitro plasma protein binding. It counts as in vitro ADME, rats. Conditions: rat.
For data set [4], the system named is canine idiopathic epilepsy. Particulars: epileptic dogs, dose escalation; ref Löscher et al., 2004; Rieck et al., 2006; cited from earlier work.
The target in a further data set is CYP2C9 (Homo sapiens, UniProt P11712). Description: In vitro enzyme inhibition, recombinant CYP, fluorescent metabolites.
CYP2C9, sequence (P11712 whole entry): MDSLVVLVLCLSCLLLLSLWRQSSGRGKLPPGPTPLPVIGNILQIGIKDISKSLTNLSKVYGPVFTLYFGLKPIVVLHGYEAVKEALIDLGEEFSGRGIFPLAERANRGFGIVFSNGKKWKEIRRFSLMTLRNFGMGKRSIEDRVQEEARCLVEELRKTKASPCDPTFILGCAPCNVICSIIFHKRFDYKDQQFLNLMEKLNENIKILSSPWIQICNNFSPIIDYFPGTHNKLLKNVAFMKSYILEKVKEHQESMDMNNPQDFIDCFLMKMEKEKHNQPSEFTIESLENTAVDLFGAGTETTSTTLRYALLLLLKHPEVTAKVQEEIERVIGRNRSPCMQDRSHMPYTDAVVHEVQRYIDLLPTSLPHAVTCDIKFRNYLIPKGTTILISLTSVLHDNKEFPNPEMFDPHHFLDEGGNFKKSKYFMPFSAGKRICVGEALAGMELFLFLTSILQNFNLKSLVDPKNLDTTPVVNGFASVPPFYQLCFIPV

As usually defined, the Cmax is the maximum level reached in the sampled fluid or tissue. Usually Tmax stands for the time from dosing to the highest level. As usually defined, the fraction unbound is free concentration divided by total concentration. A low value points to extensive binding. In general, IC50 refers to the concentration needed to halve the response being measured. In the case of `O=C1N=C(N2CCOCC2)CN1c1ccc(Cl)cc1` [Imepitoin, 1-(4-chlorophenyl)-4-morpholino-imidazolin-2-one], the Cmax in data set [1] (10 mg/kg) is 1820 ± 920 ng/mL; in data set [1] (20 mg/kg), 3500 ± 1070 ng/mL; in data set [1] (50 mg/kg), 6410 ± 1750 ng/mL. Further, the Tmax in data set [1] (10 mg/kg) came out at 8.67 ± 3.1 h; in data set [1] (20 mg/kg) it was 10.7 ± 4 h; in data set [1] (50 mg/kg), 18 ± 3.8 h; in data set [1] (100 mg/kg), 8.67 ± 3.1 h. Besides, the Tlag obs in data set [1] (single dose 10 mg/kg p.o.) is 3.67 ± 0.92 h; in data set [1] (single dose 20 mg/kg p.o.) it was 5.67 ± 0.95 h; in data set [1] (single dose 50 mg/kg p.o.), 4.17 ± 1.05 h; in data set [1] (single dose 100 mg/kg p.o.), 2.25 ± 0.94 h. The fraction unbound at 15 min, 10 μg/mL in the data set on plasma protein [2] was 0.44; with plasma protein [3] (heparinized plasma) it was 0.5 ± 0.011. For the same molecule, in the data set with plasma protein [3] (heparinized plasma), the fraction unbound at 15 min, 0.1 μg/mL is 0.49. Moreover, the fraction unbound at 15 min, 1 μg/mL in the data set on plasma protein [3] (heparinized plasma) was 0.5 ± 0.0064. In the data set on plasma protein [3] (plasma (heparinized, pool of five fasted animals)), this molecule displayed a fraction unbound at 15 min of 0.49 to 0.5. In addition, in data set [4], the “anti-epileptic activity versus historical phenobarbital data” value is listed as “comparable anti-epileptic activity”. Moreover, the tolerability versus phenobarbital result in data set [4] is on record as “clearly superior to phenobarbital”. Further, the IC50 at CYP2C9 is > 100 µM. Further, the “Inhibition of the specific cytochrome P450 isoform IC50, 2C9” value at CYP2C9 (recombinant human CYP2C9) is reported as “did not influence”.
